# Article PMC7938888, “Antidepressant drugs act by directly binding to TRKB neurotrophin receptors” (Cell, 2021)
# Key:
# mice [1] = experiment: BrdU incorporation (hippocampal neurogenesis); assay type: in vivo, mouse; settings: FLX 15 mg/kg/day 21 days p.o.
# Description: Animals: both males and females were used in this experiment. The Bromodeoxyuridine (BrdU) (Sigma) was administered intraperitoneally at the dose of 75 mg/kg four times every 2 hr to reach 300 mg/kg total for each animal. […] On day 21 of the drug treatment, the animals were euthanized by CO2, brains were quickly removed, followed by hippocampus dissection on ice, instantly frozen on dry ice and stored at −80°C until further use.
# A semiquantitative dot-blot method was performed as previously described with minor modifications ([Wu and Castrén, 2009]). To isolate the DNA of the hippocampus samples, DNeasy® Blood and Tissue Kit (QIAGEN, Germany) was used. The extraction procedure was as per the manufacturer’s instruction. The DNA purity was assessed by the spectrophotometer NanoDrop 2000C (ThermoFisher Scientific, USA). DNA was incubated with 1 volume of 4N NaOH solution for 30 min at room temperature to render it as single stranded and immediately kept on ice to prevent reannealing. The DNA solution was neutralized by an equal volume of 1M Tris-HCl (pH 6.8). The single-stranded neutralized DNA (1ug) was dot-blotted onto a nylon transfer membrane (Schlleicher and Schuell, Keene, NH) with a dot-blot apparatus (Minifold, Schlleicher and Schuell) under vacuum and the DNA was fixed by ultraviolet cross-linker (1200 μJ × 100, Stratagene, La Jolla, CA). […]
# mice [2] = experiment: Ocular dominance plasticity (monocular deprivation, intrinsic signal imaging); assay type: in vivo, mouse; settings: adult mice, 10 mg/kg i.p. every second day for 8 days
# Description: The “transparent skull” preparation was executed as described in literature ([Steinzeig et al., 2017]). Briefly, adult female mice (20-22 weeks old) were anesthetized via i.p. injection with a mixture containing: 0.05 mg/kg fentanyl (Hameln, Germany); 5 mg/kg midazolam (Hameln, Germany); 0.5 mg/kg medetomidine (Orion Pharma, Finland); diluted in saline (B Braun, Germany). The animals’ eyes were covered with protective-gel (Alcon, UK). The animal’s head was shaved and disinfected with ethanol and Betadine. The mouse head was then fixed on the stereotaxic frame and the temperature was maintained at 37°C. A mixture of lidocaine and adrenaline (Orion Pharma, Finland) was applied locally on the head and the skin was cut with spring scissors. The incision area was restricted 2 mm above the bregma and caudal edge of intraparietal bone. The scalp was removed and a focused air stream and a cotton swab were used to clean and stop bleeding. The periosteum was gently scratched away from the skull with an eye scalpel and the temporal muscles were pushed aside, in order to expose enough space around the area of interest to attach the metal holder. When the skull was smooth, white and dry, fat was removed from the skull rapidly by passing on it a cotton swab soaked in acetone and the air current was used to avoid its penetration into the bone. Then, with a metal stick, a thin layer of cyanoacrylate glue (Loctite 401, Henkel, Germany) was applied to the surface of the skull, in order to make the skull transparent. After waiting 10 minutes for the glue to dry, a first layer of acryl was applied on the skull surface with a brush. Acryl was used to prolong the life of the transparency and was prepared by stirring acrylic powder (EUBECOS, Germany) with methacrylate liquid (Densply, Germany) until a nail-polish consistency was reached. After 30 minutes, a second layer of acryl was applied and was left to dry overnight. Finally, the animals were injected s.c. with 5 mg/kg Carprofen (ScanVet, Nord Ireland) for postoperative analgesia and i.p. with a wake-up composed by: 1.2 mg/kg Naloxone (Orpha-Devel Handels und Vertriebs GmbH, Austria), opioid receptor antagonist; 0.5 mg/kg Flumazenil (Hameln, Germany), GABA-A receptor antagonist; 2.5 mg/kg Atipamezole (Vet Medic animal Health Oy, Finland), adrenergic receptor antagonist; diluted in saline (B Braun, Germany). The next day, isoflurane at 4% was used for a couple of minutes to induce the anesthesia and then it was reduced at 2% for the procedure. The acryl layer was polished only on the area of interest, using a hand drill with a polishing bit. […]
# Optical imaging. The saturation of haemoglobin in the primary visual cortex of the right hemisphere was measured to assess cortical activity ([Cang et al., 2005]; [Kalatsky and Stryker, 2003]). […]
# TRKB.Y433F = target: T1, TRKB.Y433F (Mus musculus, UniProt P15209, Y433F); experiment: Cell-free ligand binding assay, TRKB.Y433F mutant; settings: TRKB.Y433F; read-out: binding affinity of BDNF
# T1 construct: wild-type GFP-tagged full length TRKB or the GFP-tagged Y433F TRKB mutant; host or cells: HEK293T
# Description: The cell-free assays (binding assays) were performed in white 96-well plates, based on the protocol used for western-blotting or ELISA ([Baeza-Raja et al., 2016]; [Das et al., 2015]). The plates were precoated with anti-GFP, anti-FLAG, anti-TRK or anti-TRKB antibody (1:1000) in carbonate buffer (pH 9.8), ON at 4°C. Following blocking with 3% BSA in PBS buffer (2 h at RT), 120 ug of total protein from each sample (of lysates from HEK293T cells transfected to overexpress GFP-TRKB.wt or GFP-TRKB.Y433F) were added and incubated overnight at 4°C under agitation. […] The luminescence was determined via HRP-conjugated streptavidin (1:10000, 1h, RT) activity reaction with ECL by a plate reader. The luminescence signal from blank wells (containing all the reagents but the sample lystates, substituted by the blocking buffer) was used as background. The specific signal was then calculated by subtracting the values of blank wells from the values of the samples with matched concentration of the biotinylated ligand. For Figure 2E, the precipitated TRKB.wt or Y433F was incubated with tritiated imipramine (0-30μM) and the radioactive emission of the ligand was determined by scintillation (OptiPhase Supermix cocktail: #1200-439; MicroBeta2, Perkin-Elmer). The scintillation signal from blank wells was used as background, and the specific signal was then calculated by subtracting the values of blank wells from the values of the samples with matched concentration of the radioactive ligand.
# T1 sequence (P15209 32-821 Y433F): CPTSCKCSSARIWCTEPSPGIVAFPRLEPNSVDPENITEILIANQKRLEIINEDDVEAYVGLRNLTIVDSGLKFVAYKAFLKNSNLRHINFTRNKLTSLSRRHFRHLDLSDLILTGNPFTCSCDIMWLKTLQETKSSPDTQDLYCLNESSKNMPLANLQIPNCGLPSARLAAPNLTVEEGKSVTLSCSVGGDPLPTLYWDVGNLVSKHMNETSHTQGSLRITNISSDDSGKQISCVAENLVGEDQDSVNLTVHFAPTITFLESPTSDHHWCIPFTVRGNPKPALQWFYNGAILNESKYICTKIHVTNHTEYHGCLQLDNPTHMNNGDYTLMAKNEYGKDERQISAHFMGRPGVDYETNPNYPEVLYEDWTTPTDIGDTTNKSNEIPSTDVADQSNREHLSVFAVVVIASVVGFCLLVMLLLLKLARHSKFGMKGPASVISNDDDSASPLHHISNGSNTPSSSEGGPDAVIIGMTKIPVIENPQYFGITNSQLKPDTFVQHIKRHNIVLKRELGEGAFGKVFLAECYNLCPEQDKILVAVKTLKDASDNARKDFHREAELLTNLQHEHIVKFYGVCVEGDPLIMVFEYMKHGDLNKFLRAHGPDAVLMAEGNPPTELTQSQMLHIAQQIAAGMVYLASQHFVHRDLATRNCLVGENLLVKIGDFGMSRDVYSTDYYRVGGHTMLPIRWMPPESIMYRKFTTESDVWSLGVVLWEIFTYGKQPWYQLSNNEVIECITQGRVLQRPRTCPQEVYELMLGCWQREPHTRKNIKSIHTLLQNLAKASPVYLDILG
molecule,measurement,setting,value
"CNCCC(Oc1ccc(C(F)(F)F)cc1)c1ccccc1 (stereo not shown) [FLX, fluoxetine]",survival of newborn hippocampal neurons,mice [1]; TRKB.Y433F mice,no increase was observed
same,survival of newborn hippocampal neurons,mice [1]; wild-type mice,significantly increased survival of newborn hippocampal neurons
"CNC1(c2ccccc2Cl)CCCCC1=O (stereo not shown) [KET, ketamine]",shift in ocular dominance after 7-day monocular deprivation,mice [2],significant shift in OD
"BDNF: brain-derived neurotrophic factor, TRKB ligand (protein, UniProt P23560 19-247, looked up) Neurotrophic factor BDNF …: APMKEANIRGQGGLAYPGVRTHGTLESVNGPKAGSRGLTSLADTFEHVIEELLDEDQKVRPNEENNKDADLYTSRVMLSSQVPLEPPLLFLLEEYKNYLDAANMSMRVRRHSDPARRGELSVCDSISEWVTAADKKTAVDMSGGTVTVLEKVPVSKGQLKQYFYETKCNPMGYTKEGCRGIDKRHWNSQCRTTQSYVRALTMDSKKRIGWRFIRIDTSCVCTLTIKRGR",Kd,TRKB.Y433F,2.9 pM
